According to patent US9969726B2, “Metabotropic glutamate receptor negative allosteric modulators (NAMS) and uses thereof” (Sanford-Burnham Medical Research Institute, priority 2014, dated 2018):
Read-outs that look alike come from different tables or passages of the source.

Key:
rat mGlu2 receptor = rat mGlu2 receptor (Rattus norvegicus (Rat), UniProt P31421); assay: mGlu2 in vitro GIRK thallium flux assay; format: cell-based; settings: NAM, EC80 glutamate, HEK-293 GIRK cells
Method: (§1) All cell culture reagents were purchased from Invitrogen Corp. (Carlsbad, Calif.) unless otherwise noted. Compound activity at the group II (mGlu2 and mGlu3) mGlus was assessed using thallium flux through GIRK channels. Briefly, cells were plated into 384-well, black-walled, clear-bottomed poly-D-lysine-coated plates at a density of 15,000 cells/20 μL/well in DMEM containing 10% dialyzed FBS, 20 mM HEPES, and 100 units/mL penicillin/streptomycin (assay media). Plated cells were incubated overnight at 37° C. in the presence of 5% CO2. […] Cells were incubated for 1 h at room temperature, and the dye exchanged to assay buffer using an ELX405, leaving 20 μL/well. Test compounds were diluted to 2 times their final desired concentration in assay buffer (0.3% DMSO final concentration). […] Cell plates and compound plates were loaded onto a kinetic imaging plate reader (FDSS 6000 or 7000; Hamamatsu Corporation, Bridgewater, N.J.). Appropriate baseline readings were taken (10 images at 1 Hz; excitation, 470±20 nm; emission, 540±30 nm) and test compounds were added in a 20 μL volume and incubated for either 2.5 min or 60 min as indicated before the addition of 10 μL of thallium buffer with or without agonist. After the addition of agonist, data were collected for approximately an additional 2.5 min. Data were analyzed using Excel (Microsoft Corp, Redmond, Wash.). The slope of the fluorescence increase beginning 5 s after thallium/agonist addition and ending 15 s after thallium/agonist addition was calculated, corrected to vehicle and maximal agonist control slope values, and plotted in using either XLfit (ID Business Solutions Ltd) or Prism software (GraphPad Software, San Diego, Calif.) to generate concentration-response curves. Potencies were calculated from fits using a four-point parameter logistic equation. For concentration-response curve experiments, compounds were serially diluted 1:3 into 10 point concentration response curves and were transferred to daughter plates using an Echo acoustic plate reformatter (Labcyte, Sunnyvale, Calif.). Test compounds were applied and followed by EC80 concentrations of glutamate.

rat mGlu3 receptor = rat mGlu3 receptor (Rattus norvegicus (Rat), UniProt P31422); assay: mGlu3 in vitro GIRK thallium flux assay; format: cell-based; settings: NAM; 2.5 min compound incubation; EC80 glutamate; HEK-293 GIRK cells
Chain of rat mGlu3 receptor (P31422 23-879): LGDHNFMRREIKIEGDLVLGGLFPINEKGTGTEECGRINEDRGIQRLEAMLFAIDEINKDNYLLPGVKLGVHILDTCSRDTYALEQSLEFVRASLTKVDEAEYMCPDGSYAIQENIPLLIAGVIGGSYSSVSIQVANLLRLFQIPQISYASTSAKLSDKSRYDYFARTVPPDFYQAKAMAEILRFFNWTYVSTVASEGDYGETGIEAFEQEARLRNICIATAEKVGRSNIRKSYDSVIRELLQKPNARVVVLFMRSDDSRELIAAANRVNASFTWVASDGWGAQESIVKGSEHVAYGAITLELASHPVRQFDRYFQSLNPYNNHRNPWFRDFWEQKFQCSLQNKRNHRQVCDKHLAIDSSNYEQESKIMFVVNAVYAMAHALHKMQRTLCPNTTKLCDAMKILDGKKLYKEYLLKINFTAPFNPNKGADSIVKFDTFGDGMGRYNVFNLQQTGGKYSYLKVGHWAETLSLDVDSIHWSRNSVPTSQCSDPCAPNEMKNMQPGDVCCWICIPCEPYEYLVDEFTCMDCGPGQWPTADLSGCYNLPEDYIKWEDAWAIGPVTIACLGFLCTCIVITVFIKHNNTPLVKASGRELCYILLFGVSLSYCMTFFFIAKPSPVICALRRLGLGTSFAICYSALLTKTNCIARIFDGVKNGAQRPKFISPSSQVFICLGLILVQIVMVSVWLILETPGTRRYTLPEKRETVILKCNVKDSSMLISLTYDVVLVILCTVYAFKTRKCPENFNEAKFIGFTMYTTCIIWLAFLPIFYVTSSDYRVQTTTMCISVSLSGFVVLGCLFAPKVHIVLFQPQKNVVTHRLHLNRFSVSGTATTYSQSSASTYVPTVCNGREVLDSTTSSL
Method: as §1

[1] = 2.5 min compound incubation, read-out: mGlu2 EC50 (μM) (2.5 min)
[2] = read-out: mGlu2 EC50 (μM) (60 min), 60 min compound incubation
[3] = mGlu2 EC50 (μM) (60 min), 60 min compound incubation

Chain of rat mGlu2 receptor (P31421 19-872): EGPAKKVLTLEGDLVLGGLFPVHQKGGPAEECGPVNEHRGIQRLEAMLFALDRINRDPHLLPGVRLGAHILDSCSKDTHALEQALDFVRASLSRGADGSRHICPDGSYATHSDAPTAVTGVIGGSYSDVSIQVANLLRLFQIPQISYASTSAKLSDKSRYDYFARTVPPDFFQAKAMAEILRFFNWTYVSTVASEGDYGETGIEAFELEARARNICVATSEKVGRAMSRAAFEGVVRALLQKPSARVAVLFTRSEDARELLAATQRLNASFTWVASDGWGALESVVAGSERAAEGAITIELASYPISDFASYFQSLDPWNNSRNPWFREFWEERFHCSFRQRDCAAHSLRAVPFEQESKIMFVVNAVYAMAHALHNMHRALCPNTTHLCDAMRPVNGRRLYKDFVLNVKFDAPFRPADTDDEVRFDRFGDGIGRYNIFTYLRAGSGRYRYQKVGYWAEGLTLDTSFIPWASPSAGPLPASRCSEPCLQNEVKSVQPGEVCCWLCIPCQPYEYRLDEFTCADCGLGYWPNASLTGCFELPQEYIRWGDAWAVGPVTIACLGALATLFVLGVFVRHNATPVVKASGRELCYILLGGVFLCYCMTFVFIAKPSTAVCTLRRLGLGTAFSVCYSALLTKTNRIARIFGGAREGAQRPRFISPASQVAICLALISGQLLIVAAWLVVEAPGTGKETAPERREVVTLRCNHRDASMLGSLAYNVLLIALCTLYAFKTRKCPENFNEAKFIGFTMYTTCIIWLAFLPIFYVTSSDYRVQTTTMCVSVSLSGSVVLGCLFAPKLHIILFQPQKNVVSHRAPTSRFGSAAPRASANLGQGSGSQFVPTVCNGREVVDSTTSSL

EC50 (rat mGlu2 receptor; [3])	SMILES	EC50 (rat mGlu2 receptor; [1])	EC50 (rat mGlu3 receptor)	EC50 (rat mGlu2 receptor; [2])
–	O=C1CC(c2ccnc(Cl)c2)=Nc2ccc(-c3ccccc3)cc2N1 [Example 197, 4-(2-Chloropyridin-4-yl)-8-phenyl-1,3-dihydro-2H-benzo[b][1,4]diazepin-2-one]	> 10 µM	> 10 µM	–
–	Cc1cc2c(cc1C(F)(F)F)NC(=O)CC(c1cccc(Sc3ncccn3)c1)N2 (single isomer, unassigned) [Example 166B, 7-Methyl-4-(3-(pyrimidin-2-ylthio)phenyl)-8-(trifluoromethyl)-4,5-dihydro-1H-benzo[b][1,4]diazepin-2(3H)-one]	8.47 µM	4.53 µM	1.23 µM
–	O=C(O)c1cccc(-c2cccc(-c3nc(-c4ccccc4)nn3-c3ccccc3)c2)c1 [Example 66, 3′-(1,3-Diphenyl-1H-1,2,4-triazol-5-yl)-[1,1′-biphenyl]-3-carboxylic Acid]	> 10 µM	> 10 µM	> 10 µM
–	O=C(O)c1ccccc1-c1cccc(-c2csc(-c3ccccc3)n2)c1 [Example 25, 3′-(2-Phenylthiazol-4-yl)biphenyl-2-carboxylic Acid]	> 10 µM	> 10 µM	> 10 µM
–	CONC(=O)c1cc(-c2cccc(-c3nc(-c4ccoc4)cc(C(F)(F)F)n3)c2)ccc1F [Example 132, 4-Fluoro-3′-(4-(furan-3-yl)-6-(trifluoromethyl)pyrimidin-2-yl)-N-methoxy-[1,1′-biphenyl]-3-carboxamide]	> 10 µM	5.26 µM	7.1 µM
–	Cc1cc(C)cc(-c2cc(C(F)(F)F)nc(-c3cccc(-c4ccc(F)c(C(=O)O)c4)c3)n2)c1 [Example 93, 3′-(4-(3,5-Dimethylphenyl)-6-(trifluoromethyl)pyrimidin-2-yl)-4-fluorobiphenyl-3-carboxylic Acid]	> 10 µM	> 10 µM	1.6 µM
–	O=C(O)c1cccc(-c2cccc(-c3nc(-c4ccoc4)cc(C(F)(F)F)n3)c2)c1 [Example 115, 3′-(4-(Furan-3-yl)-6-(trifluoromethyl)pyrimidin-2-yl)biphenyl-3-carboxylic acid]	0.28 µM	0.96 µM	0.12 µM
0.27 µM	O=C(O)c1cccc(-c2cccc(-c3csc(-c4ccc(Cl)nc4)n3)c2)c1 [Example 35, 3′-(2-(6-Chloropyridin-3-yl)thiazol-4-yl)biphenyl-3-carboxylic Acid]	3.83 µM	> 10 µM	–
–	Cc1cc2c(cc1C(F)(F)F)NC(=O)CC(c1cccc(Oc3ccccn3)c1)=N2 [Example 150, 7-Methyl-4-(3-(pyridin-2-yloxy)phenyl)-8-(trifluoromethyl)-1H-benzo[b][1,4]diazepin-2(3H)-one]	2.79 µM	1.52 µM	–
> 10 µM	O=C(O)c1ccc(-c2cccc(-c3nc(-c4ccccc4)n(-c4ccccc4)n3)c2)cc1 [Example 60, 3′-(1,5-Diphenyl-1H-1,2,4-triazol-3-yl)-[1,1′-biphenyl]-4-carboxylic Acid]	> 10 µM	5.3 µM	–
–	O=C(O)c1cccc(-c2cccc(-c3csc(-c4ccc5c(c4)OCCO5)n3)c2)c1 [Example 34, 3-[3-(2-(2H,3H-benzo[e]1,4-dioxin-6-yl)-1,3-thiazol-4-yl)phenyl]benzoic acid]	> 10 µM	> 10 µM	0.28 µM
–	O=C1CC(c2ccnc(Cl)c2)=Nc2ccc(-c3ccc(Cl)cc3)cc2N1 [Example 186, 8-(4-Chlorophenyl)-4-(2-chloropyridin-4-yl)-1,3-dihydro-2H-benzo[b][1,4]diazepin-2-one]	2.42 µM	1.36 µM	1.01 µM
3.78 µM	O=C(O)c1cccc(-c2cccc(-c3nc(-c4ccoc4)n(-c4ccccc4)n3)c2)c1 [Example 59, 3′-(5-(Furan-3-yl)-1-phenyl-1H-1,2,4-triazol-3-yl)-[1,1′-biphenyl]-3-carboxylic acid]	> 10 µM	> 10 µM	–
–	COc1ccc(C(=O)O)cc1-c1cccc(-c2nc(-c3ccc(C(F)(F)F)nc3)cc(C(F)(F)F)n2)c1 [Example 77, 6-Methoxy-3′-(4-(trifluoromethyl)-6-(6-(trifluoromethyl)pyridin-3-yl)pyrimidin-2-yl)biphenyl-3-carboxylic Acid]	0.96 µM	1.59 µM	0.29 µM
–	O=C1CC(c2ccnc(-c3ccccc3)c2)=Nc2ccc(C(F)(F)F)cc2N1 [Example 198, 4-(2-Phenylpyridin-4-yl)-8-(trifluoromethyl)-1,3-dihydro-2H-benzo[b][1,4]diazepin-2-one]	> 10 µM	0.46 µM	0.26 µM
> 10 µM	O=C(O)c1cc(-c2cccc(-c3csc(-c4ccccc4)n3)c2)cc([N+](=O)[O-])c1 [Example 13, 5-Nitro-3′-(2-phenylthiazol-4-yl)biphenyl-3-carboxylic Acid]	> 10 µM	> 10 µM	–
–	O=C(O)c1cccc(-c2cccc(-c3cc(-c4ccccc4)sn3)c2)c1 [Example 44, 3′-(5-Phenylisothiazol-3-yl)-[1,1′-biphenyl]-3-carboxylic Acid]	0.68 µM	> 10 µM	0.18 µM
–	O=C(O)c1ccc(-c2cccc(-c3nc(-c4ccc(C(F)(F)F)nc4)cc(C(F)(F)F)n3)c2)s1 [Example 80, 5-(3-(4-(Trifluoromethyl)-6-(6-(trifluoromethyl)pyridin-3-yl)pyrimidin-2-yl)phenyl)thiophene-2-carboxylic Acid]	0.78 µM	2.4 µM	0.13 µM
–	O=C(O)c1cc(-c2cccc(-c3nc(-c4cc5ccccc5s4)cc(C(F)(F)F)n3)c2)ccc1F [Example 102, 3′-(4-(Benzo[b]thiophen-2-yl)-6-(trifluoromethyl)pyrimidin-2-yl)-4-fluorobiphenyl-3-carboxylic Acid]	3.33 µM	3.12 µM	0.88 µM
–	O=C(O)c1cc(-c2cccc(-c3nc(-c4ccc(Cl)cc4)cc(C(F)(F)F)n3)c2)ccc1F [Example 98, 3′-(4-(4-Chlorophenyl)-6-(trifluoromethyl)pyrimidin-2-yl)-4-fluorobiphenyl-3-carboxylic Acid]	2.87 µM	2.47 µM	0.35 µM
–	O=C(O)c1cc(-c2cccc(-c3nc(-c4ccc(C(F)(F)F)cc4)cc(C(F)(F)F)n3)c2)ccc1F [Example 108, 4-Fluoro-3′-(4-(trifluoromethyl)-6-(4-(trifluoromethyl)phenyl)pyrimidin-2-yl)biphenyl-3-carboxylic Acid]	1.5 µM	1.49 µM	–
–	Cc1cccc(-c2cc(C(F)(F)F)nc(-c3cccc(-c4ccc(F)c(C(=O)O)c4)c3)n2)c1 [Example 92, 4-Fluoro-3′-(4-m-tolyl-6-(trifluoromethyl)pyrimidin-2-yl)biphenyl-3-carboxylic Acid]	2.79 µM	3.37 µM	0.4 µM
–	O=C(O)c1cc(-c2cccc(-c3nc(-c4cccnc4F)cc(C(F)(F)F)n3)c2)ccc1F [Example 97, 4-Fluoro-3′-(4-(2-fluoropyridin-3-yl)-6-(trifluoromethyl)pyrimidin-2-yl)biphenyl-3-carboxylic Acid]	1.07 µM	2.21 µM	0.36 µM
0.85 µM	O=C(O)c1cc(-c2cccc(-c3csc(-c4ccc(C(F)(F)F)nc4)n3)c2)ccc1F [Example 5, 4-Fluoro-3′-(2-(6-(trifluoromethyl)pyridin-3-yl)thiazol-4-yl)biphenyl-3-carboxylic Acid]	1.35 µM	3.11 µM	–
–	O=C(O)c1cc(-c2cccc(-c3nc(-c4ccc(C(F)(F)F)nc4)cc(C(F)(F)F)n3)c2)ccc1Cl [Example 70, 4-Chloro-3′-(4-(trifluoromethyl)-6-(6-(trifluoromethyl)pyridin-3-yl)pyrimidin-2-yl)biphenyl-3-carboxylic Acid]	1.26 µM	1.58 µM	0.2 µM

SMILES	EC50 (rat mGlu2 receptor; [3])	EC50 (rat mGlu2 receptor; [1])	EC50 (rat mGlu3 receptor)	EC50 (rat mGlu2 receptor; [2])
Cc1cc(-c2cccc(C3CC(=O)Nc4cc(NC(=O)OCc5ccccc5)ccc4N3)c2)cc(C)n1 (racemic) [Example 162, Benzyl (2-(3-(2,6-dimethylpyridin-4-yl)phenyl)-4-oxo-2,3,4,5-tetrahydro-1H-benzo[b][1,4]diazepin-7-yl)carbamate]	5.36 µM	> 10 µM	> 10 µM	–
Cc1cc2c(cc1C(F)(F)F)NC(=O)CC(c1cccc(Oc3ccccn3)c1)N2 (racemic) [Example 165, 7-Methyl-4-(3-(pyridin-2-yloxy)phenyl)-8-(trifluoromethyl)-4,5-dihydro-1H-benzo[b][1,4]diazepin-2(3H)-one]	1.47 µM	4.37 µM	3.47 µM	–
